Key:
[1] = THP1-Dual cytotoxicity (Cell Titer Glo, ATP); assay type: cell-based, human; conditions: human, THP1-Dual cells, read-out: Thp1 cytotox CC50
Description: FIG. 9C is a CC50 (50% cytotoxic concentration) graph of AV-C dependent IRF activation in THP1-Dual cells, determined with an 8-point dose response experiment. Cell viability was monitored based on quantitation of ATP present, as an indicator of metabolically active cells, where luminescence is proportional to the amount of ATP present, using Cell-Titer Glo (Promega).
The OTRADI Small Molecule Library of approximately 246,000 diverse compounds (see below for description) was screened using the THP1-Dual based HTS platform described above. All transfer steps in the screen are fully automated, thus reducing variability. Primary screening included a single data point or dose for each molecule. After data normalization was applied for each assay run, “hit” selection was performed on the plates that pass the quality control (QC) criterion. Hits were defined as samples having values above the activity cutoff determined based on noise level of the assay to reduce false positive rates. In the pilot study discussed above this activity value was >3σ above the ISRE mean with the added criteria of NFκB activation being lower than […] from the mean to identify IRF selective compounds. The ratio of ISRE:NFκB activity was also calculated as a selectivity index for prioritizing hit selection. Primary hits underwent secondary screening to determine the 50% effective concentration (EC50) and 50% cytotoxic concentration (CC50) of these agents using an 8-point dose-response curve in the human THP1-Dual cells. Cytotoxicity was measured in the plate using Cell Titer Glo (Promega). Identified candidate compounds were further screened (orthogonal screen) for cross species activity in the validated mouse J774-Dual assay using an 8-point dose-response format to determine EC50 and CC50 values as well as ISRE:NFκB ratios. A general process flow for the experimental design laid out above is depicted at FIG. 12.

J774-Dual cytotoxicity = assay type: cell-based, mouse; conditions: mouse, J774-Dual cells, read-out: J774 cytotox CC50
Experimental: The OTRADI Small Molecule Library of approximately 246,000 diverse compounds (see below for description) was screened using the THP1-Dual based HTS platform described above. All transfer steps in the screen are fully automated, thus reducing variability. Primary screening included a single data point or dose for each molecule. After data normalization was applied for each assay run, “hit” selection was performed on the plates that pass the quality control (QC) criterion. Hits were defined as samples having values above the activity cutoff determined based on noise level of the assay to reduce false positive rates. […] The ratio of ISRE:NFκB activity was also calculated as a selectivity index for prioritizing hit selection. Primary hits underwent secondary screening to determine the 50% effective concentration (EC50) and 50% cytotoxic concentration (CC50) of these agents using an 8-point dose-response curve in the human THP1-Dual cells. Cytotoxicity was measured in the plate using Cell Titer Glo (Promega). Identified candidate compounds were further screened (orthogonal screen) for cross species activity in the validated mouse J774-Dual assay using an 8-point dose-response format to determine EC50 and CC50 values as well as ISRE:NFκB ratios. A general process flow for the experimental design laid out above is depicted at FIG. 12.

Compound	CC50 ([1]; Human Reporter Cell Line) [µM]	CC50 (J774-Dual cytotoxicity; Mouse Reporter Cell Line) [µM]	CC50 ([1]; Human Reporter Cell Line THP1) [µM]	CC50 (J774-Dual cytotoxicity; Mouse Reporter Cell Line J774) [µM]
CC(=O)N1CCN(c2ccc(NC(=O)c3ccc(OCc4ccccc4)cc3)cc2)CC1 [NA-2]	> 25	> 25	–	–
O=C(Nc1ccc(N2CCN(C(=O)c3ccco3)CC2)cc1)c1ccccc1F [NA-3]	> 25	> 25	–	–
O=C(c1ccco1)N1CCN(c2ccccc2)CC1 [NA-5]	> 25	> 25	–	–
O=C(Nc1ccc(N2CCN(C(=O)c3cccs3)CC2)cc1)c1ccc(Br)o1 [NA-8]	> 25	> 25	–	–
O=C(Cc1cc(Br)cc(Br)c1)Nc1ccc(N2CCN(C(=O)c3cccs3)CC2)cc1 [NA-9]	> 25	> 25	–	–
O=C(Nc1ccc(N2CCN(C(=O)c3cccs3)CC2)cc1)c1cccc2ccccc12 [NA-11]	> 25	> 25	–	–
O=C(Nc1ccc(N2CCN(C(=O)c3cccs3)CC2)cc1)c1ccc2c(c1)OCO2 [NA-12]	> 25	> 25	–	–
O=C(Nc1ccc(N2CCN(C(=O)c3cccs3)CC2)cc1)c1ccc(Oc2ccccc2)cc1 [NA-26]	> 25	> 25	–	–
CCOc1ccc(C(=O)Nc2ccc(N3CCN(C(=O)c4cccs4)CC3)c(Cl)c2)cc1Br [NA-27]	> 25	> 25	–	–
O=C(Nc1ccc(N2CCN(C(=O)c3cccs3)CC2)c(Cl)c1)c1ccc2c(c1)OCCO2 [NA-29]	65	45.8	–	–
O=C(Nc1ccc(N2CCN(C(=O)c3cccnc3)CC2)cc1)c1ccc(OCc2ccccc2)cc1 [NA-36]	> 25	> 25	–	–
O=C(Nc1ccc(N2CCN(C(=O)c3ccncc3)CC2)cc1)c1ccc(OCc2ccccc2)cc1 [NA-37]	> 25	> 25	–	–
O=C(Nc1ccc(N2CCN(C(=O)c3cccs3)CC2)cc1)c1cncc(-c2ccccc2)c1 [NA-40]	> 25	> 25	–	–
O=C(Nc1ccc(N2CCN(C(=O)c3ccc(Cl)cc3)CC2)cc1)c1ccc(OCc2ccccc2)cc1 [NA-45]	10.7	> 25	–	–
O=C(Nc1ccc(N2CCN(C(=O)c3cccc(Cl)c3)CC2)cc1)c1ccc(OCc2ccccc2)cc1 [NA-48]	> 25	> 25	–	–
O=C(NCCC(=O)N1CCN(C(=O)c2cccs2)CC1)c1ccc(OCc2ccccc2)cc1 [NA-54]	> 25	> 25	–	–
Cc1ccc(Cn2cc(CN3CCN(C(=O)c4cccs4)CC3)nn2)cc1 [NA-55]	> 25	> 25	–	–
O=C(c1cccs1)N1CCN(Cc2cn(Cc3ccc(Cl)cc3)nn2)CC1 [NA-56]	> 25	> 25	–	–
COc1cccc(Cn2cc(CN3CCN(C(=O)c4cccs4)CC3)nn2)c1 [NA-57]	> 25	> 25	–	–
O=C(c1cccs1)N1CCN(Cc2cn(Cc3ccccc3Cl)nn2)CC1 [NA-58]	> 25	> 25	–	–
CCOc1ccc(C(=O)Nc2ccc(N3CCN(C(=O)c4cccs4)CC3)cc2)cc1[N+](=O)[O-] [NA-65]	> 10	> 10	–	–
O=C(Nc1ccc(N2CCN(C(=O)c3cccs3)CC2)c(Cl)c1)c1cc([N+](=O)[O-])ccc1N1CCOCC1 [NA-66]	> 10	> 10	–	–

Compound	CC50 ([1]; Human Reporter Cell Line) [µM]	CC50 (J774-Dual cytotoxicity; Mouse Reporter Cell Line) [µM]	CC50 ([1]; Human Reporter Cell Line THP1) [µM]	CC50 (J774-Dual cytotoxicity; Mouse Reporter Cell Line J774) [µM]
O=C(Nc1ccc(N2CCN(C(=O)c3cccs3)CC2)cc1)c1ccccc1Br [NA-67]	> 10	> 10	–	–
O=C(Nc1ccc(N2CCN(C(=O)c3cccs3)CC2)cc1)c1cccc(Oc2ccccc2)c1 [NA-68]	> 10	> 10	–	–
O=C(c1cccs1)N1CCN(c2ccc(NS(=O)(=O)c3ccc(-c4ccccc4)cc3)cc2)CC1 [NA-69]	> 10	> 10	–	–
O=C(Nc1ccc(N2CCN(C(=O)c3cccs3)CC2)cc1)c1ccc(N2CCCCC2)c([N+](=O)[O-])c1 [NA-70]	> 10	> 10	–	–
O=C(Nc1ccc(-c2ccccc2)cc1)Nc1ccc(N2CCN(C(=O)c3cccs3)CC2)cc1 [NA-72]	> 10	> 10	–	–
O=C(Nc1ccc(N2CCN(C(=O)c3cccs3)CC2)c(Cl)c1)c1ccc(OCc2ccccc2)cc1 [NA-73]	> 10	> 10	–	–
Cc1cc(NC(=O)c2ccc(OCc3ccccc3)cc2)ccc1N1CCN(C(=O)c2cccs2)CC1 [NA-74]	> 10	> 10	–	–
Cc1ccc(C(=O)Nc2cc(-c3nc4cc(C(C)C)ccc4o3)ccc2C)cc1C [ND-9]	–	–	> 25	> 25
COc1ccc(C(=O)Nc2cc(-c3nc4cc(C(C)C)ccc4o3)ccc2C)cc1 [ND-10]	–	–	> 25	> 25
Cc1ccc(-c2nc3cc(C(C)C)ccc3o2)cc1NC(=S)NC(=O)c1cccc(F)c1 [ND-11]	–	–	> 25	> 25
Cc1ccc(-c2nc3cc(C(C)C)ccc3o2)cc1NC(=O)c1cc2ccccc2o1 [ND-12]	–	–	47.6	> 25
COc1cc(C(=O)Nc2cc(-c3nc4cc(C(C)C)ccc4o3)ccc2C)cc(OC)c1OC [ND-14]	–	–	> 25	> 25
COc1ccc(-c2nc3cc(C(C)C)ccc3o2)cc1NC(=O)c1cccc([N+](=O)[O-])c1C [ND-15]	–	–	> 25	> 25
CCOc1ccc(C(=O)Nc2cccc(-c3nc4cc(C(C)C)ccc4o3)c2)cc1[N+](=O)[O-] [ND-17]	–	–	> 25	> 25
COc1ccc(C(=O)Nc2nc(-c3cc4ccccc4oc3=O)cs2)cc1[N+](=O)[O-] [ND-29]	–	–	> 25	> 25
Cc1ccc(C(=O)Nc2nc(C)c(-c3ccccc3)s2)cc1[N+](=O)[O-] [ND-32]	–	–	> 25	> 25
Cc1cc2nc(-c3ccc(C)c(NC(=O)c4cc([N+](=O)[O-])ccc4Cl)c3)oc2cc1C [ND-33]	–	–	> 25	> 25
CCOc1ccc(C(=O)Nc2ccc3oc(-c4cccnc4)nc3c2)cc1[N+](=O)[O-] [ND-44]	–	–	> 25	> 25
COc1ccc(C(=O)Nc2ccc(Cl)c(-c3nc4cc(C)c(C)cc4o3)c2)cc1[N+](=O)[O-] [ND-45]	–	–	12.9	> 25
Cc1ccc(-c2nc3cc(NC(=O)c4ccc(C)c([N+](=O)[O-])c4)ccc3o2)cc1 [ND-49]	–	–	5.52	> 25
Cc1cc(C(=O)Nc2cc(-c3nc4ccccc4s3)ccc2Cl)ccc1[N+](=O)[O-] [ND-51]	–	–	22.1	> 25

Source: patent US20220395500A1, “SMALL MOLECULE ACTIVATORS OF INTERFERON REGULATORY FACTOR 3 AND METHODS OF USE THEREOF” (Neuralexo, Inc., priority 2020, published 2022)
